In PMC7570544, “Biological Activities and ADMET-Related Properties of Novel Set of Cinnamanilides” (Molecules, 2020):
≈ marks a conversion by molar mass, not a printed value.

Test system: Staphylococcus aureus ATCC 29213
Assay: In vitro antibacterial evaluation, broth microdilution MIC, reference strain
Format: cell-based
Details: Staphylococcus aureus, ATCC29213; S. aureus ATCC 29213

Row | SMILES | MIC [µM]
1 | O=C(/C=C/c1ccccc1)Nc1cc(F)c(F)c(F)c1 [Compound 3, (2E)-3-Phenyl-N-(3,4,5-trifluorophenyl)prop-2-enamide] | 462 (≈ 128 µg/mL)
2 | O=C(/C=C/c1ccccc1)Nc1ccc([N+](=O)[O-])cc1C(F)(F)F [Compound 17, (2E)-N-[4-Nitro-2-(trifluoromethyl)phenyl]-3-phenylprop-2-enamide] | > 762
3 | O=C(/C=C/c1ccccc1)Nc1cc(Cl)c(Cl)c(Cl)c1 [Compound 6, (2E)-3-Phenyl-N-(3,4,5-trichlorophenyl)prop-2-enamide] | > 790
4 | O=C(/C=C/c1ccccc1)Nc1ccc(Cl)cc1C(F)(F)F [Compound 15, (2E)-N-[4-Chloro-2-(trifluoromethyl)phenyl]-3-phenylprop-2-enamide] | > 788

Test system: methicillin-resistant Staphylococcus aureus (MRSA) 63718
Assay: In vitro antibacterial evaluation, broth microdilution MIC, MRSA isolate 63718
Format: cell-based
Details: clinical isolate MRSA 63718

Row | SMILES | MIC [µM]
5 | O=C(/C=C/c1ccccc1)Nc1cc(F)c(F)c(F)c1 [Compound 3, (2E)-3-Phenyl-N-(3,4,5-trifluorophenyl)prop-2-enamide] | > 924
6 | O=C(/C=C/c1ccccc1)Nc1ccc([N+](=O)[O-])cc1C(F)(F)F [Compound 17, (2E)-N-[4-Nitro-2-(trifluoromethyl)phenyl]-3-phenylprop-2-enamide] | > 762
7 | O=C(/C=C/c1ccccc1)Nc1cc(Cl)c(Cl)c(Cl)c1 [Compound 6, (2E)-3-Phenyl-N-(3,4,5-trichlorophenyl)prop-2-enamide] | > 790
8 | O=C(/C=C/c1ccccc1)Nc1ccc(Cl)cc1C(F)(F)F [Compound 15, (2E)-N-[4-Chloro-2-(trifluoromethyl)phenyl]-3-phenylprop-2-enamide] | > 788

Test system: methicillin-resistant Staphylococcus aureus (MRSA) SA 630
Assay: In vitro antibacterial evaluation, broth microdilution MIC, MRSA isolate SA 630
Format: cell-based
Details: clinical isolate MRSA SA 630

Row | SMILES | MIC [µM]
9 | O=C(/C=C/c1ccccc1)Nc1cc(F)c(F)c(F)c1 [Compound 3, (2E)-3-Phenyl-N-(3,4,5-trifluorophenyl)prop-2-enamide] | > 924
10 | O=C(/C=C/c1ccccc1)Nc1ccc([N+](=O)[O-])cc1C(F)(F)F [Compound 17, (2E)-N-[4-Nitro-2-(trifluoromethyl)phenyl]-3-phenylprop-2-enamide] | > 762
11 | O=C(/C=C/c1ccccc1)Nc1cc(Cl)c(Cl)c(Cl)c1 [Compound 6, (2E)-3-Phenyl-N-(3,4,5-trichlorophenyl)prop-2-enamide] | > 790
12 | O=C(/C=C/c1ccccc1)Nc1ccc(Cl)cc1C(F)(F)F [Compound 15, (2E)-N-[4-Chloro-2-(trifluoromethyl)phenyl]-3-phenylprop-2-enamide] | > 788

Test system: Mycobacterium tuberculosis H37Ra/ATCC 25177
Assay: In vitro antimycobacterial evaluation
Format: cell-based
Details: M. tuberculosis H37Ra
Text: Isoniazid (Sigma) was used as the standard.

Row | SMILES | MIC [µM]
13 | O=C(/C=C/c1ccccc1)Nc1cc(F)c(F)c(F)c1 [Compound 3, (2E)-3-Phenyl-N-(3,4,5-trifluorophenyl)prop-2-enamide] | > 462
14 | O=C(/C=C/c1ccccc1)Nc1ccc([N+](=O)[O-])cc1C(F)(F)F [Compound 17, (2E)-N-[4-Nitro-2-(trifluoromethyl)phenyl]-3-phenylprop-2-enamide] | > 381
15 | O=C(/C=C/c1ccccc1)Nc1cc(Cl)c(Cl)c(Cl)c1 [Compound 6, (2E)-3-Phenyl-N-(3,4,5-trichlorophenyl)prop-2-enamide] | > 395
16 | O=C(/C=C/c1ccccc1)Nc1ccc(Cl)cc1C(F)(F)F [Compound 15, (2E)-N-[4-Chloro-2-(trifluoromethyl)phenyl]-3-phenylprop-2-enamide] | > 394

Test system: THP1-Blue™ NF-κB cell line
Assay: In vitro cell viability assay (WST-1)
Format: cell-based
Details: Homo sapiens; THP1-Blue NF-κB cells, 24 h incubation, WST-1, mean ± SEM, n = 6; read-out: Tox IC50 ± SEM
Procedure: The cytotoxic effect of the tested compounds was specified on THP1-Blue™ NF-κB cell line (Invivogen; San Diego, CA, USA), as described previously. […] The final concentration of DMSO was 0.1% (v/v) in each well. The viability analysis was performed after 24 h incubation with the tested substances using the WST-1 Cell Proliferation Reagent kit (Roche Diagnostics, Basel, Switzerland) according to the manufacturer’s manual. […] The IC50 values were calculated by four-parameter logistic (4PL) analysis from obtained viability curves by GraphPad Prism 8.0.1 (San Diego, CA, USA) software.

Row | SMILES | IC50 [µM]
17 | O=C(/C=C/c1ccccc1)Nc1cc(F)c(F)c(F)c1 [Compound 3, (2E)-3-Phenyl-N-(3,4,5-trifluorophenyl)prop-2-enamide] | > 20
18 | O=C(/C=C/c1ccccc1)Nc1ccc([N+](=O)[O-])cc1C(F)(F)F [Compound 17, (2E)-N-[4-Nitro-2-(trifluoromethyl)phenyl]-3-phenylprop-2-enamide] | > 20
19 | O=C(/C=C/c1ccccc1)Nc1cc(Cl)c(Cl)c(Cl)c1 [Compound 6, (2E)-3-Phenyl-N-(3,4,5-trichlorophenyl)prop-2-enamide] | > 20
20 | O=C(/C=C/c1ccccc1)Nc1ccc(Cl)cc1C(F)(F)F [Compound 15, (2E)-N-[4-Chloro-2-(trifluoromethyl)phenyl]-3-phenylprop-2-enamide] | > 20

Test system: not listed separately
Assay: Lipophilicity determination by RP-TLC
Format: physicochemical
Design: key to RM (MeOH:H2O): RM = log(1/RF - 1), from RP-18 TLC
Details: 72:28 MeOH:H2O
Procedure: RM values were determined from the RP-18 TLC measurements. […] The volatiles were carefully evaporated, and the plate was developed by MeOH (100%) or MeOH: H2O-HPLC (72:28 v/v) or MeOH: NaOAc buffer, pH 7.4 (72:28 v/v). After drying, the spots were visualized under UV (λ = 365 nm). RM data were obtained from equation: RM = log(1/RF-1). Each experiment was repeated three times.

Row | SMILES | RM (MeOH:H2O)
21 | O=C(/C=C/c1ccccc1)Nc1cc(F)c(F)c(F)c1 [Compound 3, (2E)-3-Phenyl-N-(3,4,5-trifluorophenyl)prop-2-enamide] | 0.6074
22 | O=C(/C=C/c1ccccc1)Nc1ccc([N+](=O)[O-])cc1C(F)(F)F [Compound 17, (2E)-N-[4-Nitro-2-(trifluoromethyl)phenyl]-3-phenylprop-2-enamide] | 0.4998
23 | O=C(/C=C/c1ccccc1)Nc1cc(Cl)c(Cl)c(Cl)c1 [Compound 6, (2E)-3-Phenyl-N-(3,4,5-trichlorophenyl)prop-2-enamide] | 1.0852
24 | O=C(/C=C/c1ccccc1)Nc1ccc(Cl)cc1C(F)(F)F [Compound 15, (2E)-N-[4-Chloro-2-(trifluoromethyl)phenyl]-3-phenylprop-2-enamide] | 0.5305

Same assay, conditions: 72:28 MeOH:NaOAc buffer (pH 7.4)

Row | SMILES | RM (pH 7.4)
25 | O=C(/C=C/c1ccccc1)Nc1cc(F)c(F)c(F)c1 [Compound 3, (2E)-3-Phenyl-N-(3,4,5-trifluorophenyl)prop-2-enamide] | 0.5495
26 | O=C(/C=C/c1ccccc1)Nc1ccc([N+](=O)[O-])cc1C(F)(F)F [Compound 17, (2E)-N-[4-Nitro-2-(trifluoromethyl)phenyl]-3-phenylprop-2-enamide] | 0.4311
27 | O=C(/C=C/c1ccccc1)Nc1cc(Cl)c(Cl)c(Cl)c1 [Compound 6, (2E)-3-Phenyl-N-(3,4,5-trichlorophenyl)prop-2-enamide] | 1.1306
28 | O=C(/C=C/c1ccccc1)Nc1ccc(Cl)cc1C(F)(F)F [Compound 15, (2E)-N-[4-Chloro-2-(trifluoromethyl)phenyl]-3-phenylprop-2-enamide] | 0.3219

Same assay, conditions: 100% MeOH

Row | SMILES | RM (100% MeOH)
29 | O=C(/C=C/c1ccccc1)Nc1cc(F)c(F)c(F)c1 [Compound 3, (2E)-3-Phenyl-N-(3,4,5-trifluorophenyl)prop-2-enamide] | −0.4206
30 | O=C(/C=C/c1ccccc1)Nc1ccc([N+](=O)[O-])cc1C(F)(F)F [Compound 17, (2E)-N-[4-Nitro-2-(trifluoromethyl)phenyl]-3-phenylprop-2-enamide] | −0.5633
31 | O=C(/C=C/c1ccccc1)Nc1cc(Cl)c(Cl)c(Cl)c1 [Compound 6, (2E)-3-Phenyl-N-(3,4,5-trichlorophenyl)prop-2-enamide] | −0.1870
32 | O=C(/C=C/c1ccccc1)Nc1ccc(Cl)cc1C(F)(F)F [Compound 15, (2E)-N-[4-Chloro-2-(trifluoromethyl)phenyl]-3-phenylprop-2-enamide] | −0.6102

Test system: not given
Assay: not given
Details: RP-HPLC, 72:28 MeOH:H2O

Row | SMILES | Logk
33 | O=C(/C=C/c1ccccc1)Nc1cc(F)c(F)c(F)c1 [Compound 3, (2E)-3-Phenyl-N-(3,4,5-trifluorophenyl)prop-2-enamide] | 0.4893
34 | O=C(/C=C/c1ccccc1)Nc1ccc([N+](=O)[O-])cc1C(F)(F)F [Compound 17, (2E)-N-[4-Nitro-2-(trifluoromethyl)phenyl]-3-phenylprop-2-enamide] | 0.3794
35 | O=C(/C=C/c1ccccc1)Nc1cc(Cl)c(Cl)c(Cl)c1 [Compound 6, (2E)-3-Phenyl-N-(3,4,5-trichlorophenyl)prop-2-enamide] | 0.9671
36 | O=C(/C=C/c1ccccc1)Nc1ccc(Cl)cc1C(F)(F)F [Compound 15, (2E)-N-[4-Chloro-2-(trifluoromethyl)phenyl]-3-phenylprop-2-enamide] | 0.4113

Test system: not listed separately
Assay: physchem
Details: pH 6.5

Row | SMILES | chromatographic logD
37 | O=C(/C=C/c1ccccc1)Nc1cc(F)c(F)c(F)c1 [Compound 3, (2E)-3-Phenyl-N-(3,4,5-trifluorophenyl)prop-2-enamide] | 0.527
38 | O=C(/C=C/c1ccccc1)Nc1ccc([N+](=O)[O-])cc1C(F)(F)F [Compound 17, (2E)-N-[4-Nitro-2-(trifluoromethyl)phenyl]-3-phenylprop-2-enamide] | 0.399
39 | O=C(/C=C/c1ccccc1)Nc1cc(Cl)c(Cl)c(Cl)c1 [Compound 6, (2E)-3-Phenyl-N-(3,4,5-trichlorophenyl)prop-2-enamide] | 0.99
40 | O=C(/C=C/c1ccccc1)Nc1ccc(Cl)cc1C(F)(F)F [Compound 15, (2E)-N-[4-Chloro-2-(trifluoromethyl)phenyl]-3-phenylprop-2-enamide] | 0.454

Same assay, conditions: pH 7.4

Row | SMILES | chromatographic logD
41 | O=C(/C=C/c1ccccc1)Nc1cc(F)c(F)c(F)c1 [Compound 3, (2E)-3-Phenyl-N-(3,4,5-trifluorophenyl)prop-2-enamide] | 0.549
42 | O=C(/C=C/c1ccccc1)Nc1ccc([N+](=O)[O-])cc1C(F)(F)F [Compound 17, (2E)-N-[4-Nitro-2-(trifluoromethyl)phenyl]-3-phenylprop-2-enamide] | 0.443
43 | O=C(/C=C/c1ccccc1)Nc1cc(Cl)c(Cl)c(Cl)c1 [Compound 6, (2E)-3-Phenyl-N-(3,4,5-trichlorophenyl)prop-2-enamide] | 1.01
44 | O=C(/C=C/c1ccccc1)Nc1ccc(Cl)cc1C(F)(F)F [Compound 15, (2E)-N-[4-Chloro-2-(trifluoromethyl)phenyl]-3-phenylprop-2-enamide] | 0.474
